From patent US8961624B2, “Ortho-phenylphenol compounds as markers for liquid hydrocarbons and other fuels and oils” (Dow Global Technologies LLC, priority 2011, dated 2015)

Key:
[1] = Solubility in organic solvents at −10° C.; format: physicochemical; settings: for soluble at (concentration) in AROMATIC 200: AROMATIC 200, −10° C.; for soluble at (concentration) in DMAc / soluble at (concentration) in NMP / soluble at (concentration) in dipropylene glycol dimethyl ether / soluble at (concentration) in tetralin: −10° C.
[2] = Solubility of Ex. 13 Product (cold storage of 10% w/w solution in AROMATIC 200); format: physicochemical; settings: 10% w/w solution in AROMATIC 200, −11° C. freezer for 2 weeks
Method: Solubility of Ex. 13 Product: A solution (10% w/w) in AROMATIC 200 was prepared at room temperature. The clear solution was placed in a −11° C. freezer for 2 weeks.

Structure (SMILES) | soluble at (concentration) in AROMATIC 200 [1] [%] | soluble at (concentration) in DMAc [1] [%] | soluble at (concentration) in NMP [1] [%] | soluble at (concentration) in dipropylene glycol dimethyl ether [1] [%] | soluble at (concentration) in tetralin [1] [%] | melting point [°C] | crystallization from solution on cold storage [2]
CCCCCCCCCCCCOc1ccccc1-c1ccccc1 [2-(dodecyloxy)-1,1′-biphenyl] | 10 |  |  | 10 | 10 | 27 to 29 | 
CCCCCCCCCCCCCCCCCCOc1ccccc1-c1ccccc1 [2-(octadecyloxy)-1,1′-biphenyl] |  |  |  |  | < 5 | 42 to 45 | 
CCCCCCCCCCCCCCOc1ccccc1-c1ccccc1 [2-(tetradecyloxy)-1,1′-biphenyl] |  |  |  |  | 7.5 |  | 
c1ccc(-c2ccccc2OCc2ccc(-c3ccc(COc4ccccc4-c4ccccc4)cc3)cc2)cc1 [4,4′-bis(([1,1′-biphenyl]-2-yloxy)methyl)-1,1′-biphenyl] |  |  | 10 |  |  | 149 to 151 | 
O=C(Oc1ccccc1-c1ccccc1)c1ccccc1 [Ex. 13 Product, [1,1′-biphenyl]-2-yl benzoate] |  |  |  |  |  |  | No visibly detectable crystallization occurred

The next lines start with results.

soluble at (concentration) in AROMATIC 200 [1] [%] | soluble at (concentration) in DMAc [1] [%] | soluble at (concentration) in NMP [1] [%] | soluble at (concentration) in dipropylene glycol dimethyl ether [1] [%] | soluble at (concentration) in tetralin [1] [%] | melting point [°C] | Structure (SMILES) | crystallization from solution on cold storage [2]
10 | 10 | 10 | 10 | 10 |  | c1ccc(-c2ccccc2OCc2ccccc2COc2ccccc2-c2ccccc2)cc1 [1,2-bis(([1,1′-biphenyl]-2-yloxy)-methyl)benzene] | 
 |  | 10 |  |  | 140 to 142 | c1ccc(-c2ccccc2OCc2ccc(COc3ccccc3-c3ccccc3)cc2)cc1 [1,4-bis(([1,1′-biphenyl]-2-yloxy)-methyl)benzene] | 
 | 10 | 10 | 10 |  | 62 to 67 | c1ccc(-c2ccccc2OCCCCOc2ccccc2-c2ccccc2)cc1 [1,4-bis([1,1′-biphenyl]-2-yloxy)butane] | 
